ChEMBL document CHEMBL3885881, “DrugMatrix”

Organism: Rattus norvegicus
Assay: DrugMatrix - Regimen: Daily Repeat
Format: toxicity, organism-based, Sprague-Dawley
Set-up: regimen Daily Repeat, gender Male, age 6-8 weeks
Conditions: in vivo, po, route oral GAVAGE, […]; for ABSOLUTE BASOPHIL / ABSOLUTE EOSINOPHIL / ABSOLUTE LYMPHOCYTE / ABSOLUTE MONOCYTE / ABSOLUTE SEGMENTED NEUTROPHIL / BASOPHIL / EOSINOPHIL / ERYTHROCYTE COUNT / HEMATOCRIT / HEMOGLOBIN / LEUKOCYTE COUNT / LYMPHOCYTE / MEAN CORPUSCULAR HEMOGLOBIN / MEAN CORPUSCULAR HEMOGLOBIN CONCENTRATION / MEAN CORPUSCULAR VOLUME / MONOCYTE / NEUTROPHIL / NUCLEATED RED BLOOD CELLS / PLATELET COUNT: tissue Blood; for ALANINE AMINOTRANSFERASE / ALBUMIN / ALKALINE PHOSPHATASE / ASPARTATE AMINOTRANSFERASE / BLOOD UREA NITROGEN / CARBON DIOXIDE / CHLORIDE / CHOLESTEROL / CREATINE PHOSPHOKINASE / CREATININE / GLUCOSE / LACTATE DEHYDROGENASE / LIPASE / PHOSPHORUS / POTASSIUM / SODIUM / TOTAL BILIRUBIN / TOTAL PROTEIN / URIC ACID: tissue Plasma
[1] = 0 mg/kg, 72 h, dose level Control, time 3 day
[2] = 0 mg/kg, 120 h, dose level Control, time 5 day
[3] = 10 mg/kg, 72 h, dose level Low, time 3 day

Question: What does the source list for `COCCOC(=O)C1=C(C)NC(C)=C(C(=O)OC(C)C)C1c1cccc([N+](=O)[O-])c1` (centres undefined) [NIMODIPINE]?
Answer: ABSOLUTE BASOPHIL [1]: 0 CELLS/uL; ABSOLUTE EOSINOPHIL [1]: 0 CELLS/uL; ABSOLUTE LYMPHOCYTE [1]: 9244.83 CELLS/uL; ABSOLUTE MONOCYTE [1]: 102 CELLS/uL; ABSOLUTE SEGMENTED NEUTROPHIL [1]: 869.83 CELLS/uL; BASOPHIL [1]: 0%; EOSINOPHIL [1]: 0%; ERYTHROCYTE COUNT [1]: 5.43 x10E6/uL; HEMATOCRIT [1]: 34.03%; HEMOGLOBIN [1]: 13.27 G/DL; LEUKOCYTE COUNT [1]: 10.22 x10E3/uL; LYMPHOCYTE [1]: 90.33%; MEAN CORPUSCULAR HEMOGLOBIN [1]: 24.48 pg; MEAN CORPUSCULAR HEMOGLOBIN CONCENTRATION [1]: 39.03 G/DL; MEAN CORPUSCULAR VOLUME [1]: 62.75 fL; MONOCYTE [1]: 1%; NEUTROPHIL [1]: 8.67%; NUCLEATED RED BLOOD CELLS [1]: 0.17 /100WBC; PLATELET COUNT [1]: 989 x10E3/uL; ALANINE AMINOTRANSFERASE [1]: 77 u/L; ALBUMIN [1]: 3.97 G/DL; ALKALINE PHOSPHATASE [1]: 464.83 u/L; ASPARTATE AMINOTRANSFERASE [1]: 89.83 u/L; BLOOD UREA NITROGEN [1]: 12.17 mg/dL; CARBON DIOXIDE [1]: 34.17 mmol/L; CHLORIDE [1]: 98.33 MEQ/L; CHOLESTEROL [1]: 75.17 mg/dL; CREATINE PHOSPHOKINASE [1]: 367.67 u/L; CREATININE [1]: 0.16 mg/dL; GLUCOSE [1]: 142.67 mg/dL; LACTATE DEHYDROGENASE [1]: 139.33 u/L; LIPASE [1]: 9.5 u/L; PHOSPHORUS [1]: 10.85 mg/dL; POTASSIUM [1]: 6.38 MEQ/L; SODIUM [1]: 143.2 MEQ/L; TOTAL BILIRUBIN [1]: 0.2 mg/dL; TOTAL PROTEIN [1]: 5.77 G/DL; URIC ACID [1]: 0.7 mg/dL; ABSOLUTE BASOPHIL [2]: 0 CELLS/uL; ABSOLUTE EOSINOPHIL [2]: 0 CELLS/uL; ABSOLUTE LYMPHOCYTE [2]: 8295.33 CELLS/uL; ABSOLUTE MONOCYTE [2]: 84.67 CELLS/uL; ABSOLUTE SEGMENTED NEUTROPHIL [2]: 970 CELLS/uL; BASOPHIL [2]: 0%; EOSINOPHIL [2]: 0%; ERYTHROCYTE COUNT [2]: 5.74 x10E6/uL; HEMATOCRIT [2]: 36.22%; HEMOGLOBIN [2]: 13.85 G/DL; LEUKOCYTE COUNT [2]: 9.35 x10E3/uL; LYMPHOCYTE [2]: 88.67%; MEAN CORPUSCULAR HEMOGLOBIN [2]: 24.13 pg; MEAN CORPUSCULAR HEMOGLOBIN CONCENTRATION [2]: 38.25 G/DL; MEAN CORPUSCULAR VOLUME [2]: 63.08 fL; MONOCYTE [2]: 1%; NEUTROPHIL [2]: 10.33%; NUCLEATED RED BLOOD CELLS [2]: 0.17 /100WBC; PLATELET COUNT [2]: 883.83 x10E3/uL; ALANINE AMINOTRANSFERASE [2]: 64.5 u/L; ALBUMIN [2]: 4.12 G/DL; ALKALINE PHOSPHATASE [2]: 425.67 u/L; ASPARTATE AMINOTRANSFERASE [2]: 88.5 u/L; BLOOD UREA NITROGEN [2]: 14.17 mg/dL; CARBON DIOXIDE [2]: 30.5 mmol/L; CHLORIDE [2]: 100.33 MEQ/L; CHOLESTEROL [2]: 55.33 mg/dL; CREATINE PHOSPHOKINASE [2]: 287.17 u/L; CREATININE [2]: 0.2 mg/dL; GLUCOSE [2]: 162.83 mg/dL; LACTATE DEHYDROGENASE [2]: 111.33 u/L; LIPASE [2]: 10.5 u/L; PHOSPHORUS [2]: 10.32 mg/dL; POTASSIUM [2]: 5.13 MEQ/L; SODIUM [2]: 143.93 MEQ/L; TOTAL BILIRUBIN [2]: 0.17 mg/dL; TOTAL PROTEIN [2]: 5.9 G/DL; URIC ACID [2]: 0.77 mg/dL; ABSOLUTE BASOPHIL [3]: 0 CELLS/uL; ABSOLUTE EOSINOPHIL [3]: 0 CELLS/uL; ABSOLUTE LYMPHOCYTE [3]: 10257 CELLS/uL; ABSOLUTE MONOCYTE [3]: 34.33 CELLS/uL; ABSOLUTE SEGMENTED NEUTROPHIL [3]: 975.33 CELLS/uL; BASOPHIL [3]: 0%; EOSINOPHIL [3]: 0%; ERYTHROCYTE COUNT [3]: 5.25 x10E6/uL; HEMATOCRIT [3]: 33.27%; HEMOGLOBIN [3]: 13.03 G/DL; LEUKOCYTE COUNT [3]: 11.27 x10E3/uL; LYMPHOCYTE [3]: 92%; MEAN CORPUSCULAR HEMOGLOBIN [3]: 24.83 pg; MEAN CORPUSCULAR HEMOGLOBIN CONCENTRATION [3]: 39.2 G/DL; MEAN CORPUSCULAR VOLUME [3]: 63.37 fL; MONOCYTE [3]: 0.33%; NEUTROPHIL [3]: 7.67%; NUCLEATED RED BLOOD CELLS [3]: 0 /100WBC; PLATELET COUNT [3]: 1138 x10E3/uL; ALANINE AMINOTRANSFERASE [3]: 72.67 u/L; ALBUMIN [3]: 3.87 G/DL; ALKALINE PHOSPHATASE [3]: 445.67 u/L; ASPARTATE AMINOTRANSFERASE [3]: 88 u/L; BLOOD UREA NITROGEN [3]: 12 mg/dL; CARBON DIOXIDE [3]: 33 mmol/L; CHLORIDE [3]: 99 MEQ/L; CHOLESTEROL [3]: 69.67 mg/dL; CREATINE PHOSPHOKINASE [3]: 468 u/L; CREATININE [3]: 0.2 mg/dL; GLUCOSE [3]: 153.33 mg/dL; LACTATE DEHYDROGENASE [3]: 135.67 u/L; LIPASE [3]: 10.67 u/L; PHOSPHORUS [3]: 11.03 mg/dL; POTASSIUM [3]: 6.2 MEQ/L; SODIUM [3]: 144.23 MEQ/L; TOTAL BILIRUBIN [3]: 0.17 mg/dL; TOTAL PROTEIN [3]: 5.57 G/DL; URIC ACID [3]: 0.7 mg/dL
